In ChEMBL document CHEMBL1135698, “Synthesis, antitumor activity, molecular modeling, and DNA binding properties of a new series of imidazonaphthalimides” (J Med Chem, 2002) one finds IC50 data, which are given here for eleven compounds.

Holding throughout (type): functional, cell-based
One assay concerns PC-3. Description: In vitro concentration required to reduce cell number to 50% in human postrate carcinoma (PC-3) culture.
Another assay relates to HeLa. Description: In vitro concentration required to reduce cell number to 50% in human cervical carcinoma (HeLa) culture.
A further assay concerns HT-29. Description: In vitro concentration required to reduce cell number to 50% in human colon carcinoma (HT-29) culture.

Bounds are passed on as bounds.

For `Cc1nc2cc3c4c(cccc4c2[nH]1)C(=O)N(CCN(C)C)C3=O`, the figures for the IC50 in the assay on PC-3, with HeLa and in the assay on HT-29 were 10.4 µM, 2.35 µM and 0.94 µM, respectively.

On to `Cc1nc2cc3c4c(cccc4c2[nH]1)C(=O)N(CCN(C)CCN(C)CCN1C(=O)c2cccc4c2c(cc2nc(C)[nH]c24)C1=O)C3=O`, for which the IC50 in the assay on PC-3 is above 100 µM; in the assay on HeLa, 8.62 µM; with HT-29, 3.83 µM.

For `Cc1nc2c(cc3c4c(cccc42)C(=O)N(CCNCCNCCN2C(=O)c4cccc5c4c(cc4nc(C)[nH]c45)C2=O)C3=O)[nH]1`, the IC50 was above 100 µM in the assay on PC-3, 3.49 µM with HeLa and 1.08 µM with HT-29.

With `CN(C)CCN1C(=O)c2cccc3cc(N)cc(c23)C1=O` [AMONAFIDE], the IC50 stood at 6.38 µM in the assay with PC-3, 2.73 µM with HeLa and 4.67 µM with HT-29.

Consider `Cc1nc2cc3c4c(cccc4c2[nH]1)C(=O)N(CCN(C)CCCN(C)CCN1C(=O)c2cccc4c2c(cc2nc(C)[nH]c24)C1=O)C3=O`, for which the results for the IC50 with PC-3, with HeLa and in the assay with HT-29 were 3.22 µM, 0.8 µM and 0.32 µM, respectively.

As to `Cc1nc2c(cc3c4c(cccc42)C(=O)N(CCCNCCNCCCN2C(=O)c4cccc5c4c(cc4nc(C)[nH]c45)C2=O)C3=O)[nH]1`, the IC50 with PC-3 was 744 µM; in the assay on HeLa, 8.75 µM; in the assay on HT-29, 15 µM.

On to `Cc1nc2c(cc3c4c(cccc42)C(=O)N(CCN2CCCC2)C3=O)[nH]1`, for which the values for the IC50 in the assay with PC-3, in the assay on HeLa and with HT-29 were 4.22 µM, 6.09 µM and 3.11 µM, respectively.

Consider `Cc1nc2cc3c4c(cccc4c2[nH]1)C(=O)N(CCN(C)CCN1C(=O)c2cccc4c2c(cc2nc(C)[nH]c24)C1=O)C3=O`, for which the results for the 50% inhibitory concentration (IC50) in the assay with PC-3, in the assay on HeLa and in the assay on HT-29 were above 100 µM, 4.45 µM and 17.5 µM, respectively.

`O=C1c2cccc3cccc(c23)C(=O)N1CCNCCCNCCN1C(=O)c2cccc3cccc(c23)C1=O` [ELINAFIDE]: the IC50 stood at 0.32 µM in the assay with PC-3, 0.07 µM in the assay on HeLa and 0.017 µM in the assay with HT-29.

On to `Cc1nc2c(cc3c4c(cccc42)C(=O)N(CCNCCCNCCN2C(=O)c4cccc5c4c(cc4nc(C)[nH]c45)C2=O)C3=O)[nH]1`, for which the IC50 in the assay on PC-3 was above 100 µM; with HeLa, 8.26 µM; in the assay on HT-29, 8.5 µM.

For the compound `Cc1nc2cc3c4c(cccc4c2[nH]1)C(=O)N(CCCN(C)CCCN1C(=O)c2cccc4c2c(cc2nc(C)[nH]c24)C1=O)C3=O`, the IC50 in the assay on PC-3 is 36.3 µM; with HeLa, above 100 µM; with HT-29 it was above 100 µM.
